Assays:
[1] = 101.33 kPa, Liquid, Vibrating tube method
[2] = activity coefficient (dimensionless); of the first substance listed, at infinite dilution; xn = mol fraction of the nth substance listed; settings: 101.33 kPa, Liquid, Chromatography, x1 = 0

C[n+]1ccn(CCCO)c1.N#CN=C=[N-] [1-(3-hydroxypropyl)-3-methylimidazolium dicyanamide]
[1]
Settings	mass density [kg/m3]
298.15 K	1171
303.15 K	1167.8
308.15 K	1164.6
313.15 K	1161.4
318.15 K	1158.2
323.15 K	1155.1
328.15 K	1152
333.15 K	1148.9
338.15 K	1145.8
343.15 K	1142.7
348.15 K	1139.6
353.15 K	1136.6
358.15 K	1133.6
363.15 K	1130.6
368.15 K	1127.6

C[N+]1(CCCO)CCOCC1.N#C[N-]C#N [4-(3-hydroxypropyl)-4-methylmorpholinium dicyanamide]
[1]
Settings	mass density [kg/m3]
298.15 K	1175.4
303.15 K	1172.4
308.15 K	1169.4
313.15 K	1166.5
318.15 K	1163.6
323.15 K	1160.7
328.15 K	1157.9
333.15 K	1155
338.15 K	1152.1
343.15 K	1149.3
348.15 K	1146.5
353.15 K	1143.7
358.15 K	1141
363.15 K	1138.2
368.15 K	1135.5

CCCCCCCC [octane] + C[n+]1ccn(CCCO)c1.N#CN=C=[N-]
[2]
Settings	activity coefficient
298.15 K	881
308.15 K	779
318.15 K	698
328.15 K	626
338.15 K	560
348.15 K	509
358.15 K	465

CCCCCO [pentan-1-ol] + C[N+]1(CCCO)CCOCC1.N#C[N-]C#N
[2]
Settings	activity coefficient
318.15 K	7.75
328.15 K	7.49
338.15 K	7.26
348.15 K	7.11
358.15 K	6.88
368.15 K	6.76

CCCCCO [pentan-1-ol] + C[n+]1ccn(CCCO)c1.N#CN=C=[N-]
[2]
Settings	activity coefficient
318.15 K	4.16
328.15 K	4.14
338.15 K	4.1
348.15 K	4.06
358.15 K	4.08
368.15 K	4.05

CCCC(C)=O [pentan-2-one] + C[N+]1(CCCO)CCOCC1.N#C[N-]C#N
[2]
Settings	activity coefficient
318.15 K	7.85
328.15 K	7.96
338.15 K	8.1
348.15 K	8.23
358.15 K	8.33
368.15 K	8.44

CCCC(C)=O [pentan-2-one] + C[n+]1ccn(CCCO)c1.N#CN=C=[N-]
[2]
Settings	activity coefficient
318.15 K	4.94
328.15 K	5.14
338.15 K	5.32
348.15 K	5.46
358.15 K	5.67
368.15 K	5.81

CCC(=O)CC [pentan-3-one] + C[N+]1(CCCO)CCOCC1.N#C[N-]C#N
[2]
Settings	activity coefficient
318.15 K	8.09
328.15 K	8.2
338.15 K	8.38
348.15 K	8.52
358.15 K	8.61
368.15 K	8.75

CCC(=O)CC [pentan-3-one] + C[n+]1ccn(CCCO)c1.N#CN=C=[N-]
[2]
Settings	activity coefficient
318.15 K	5.1
328.15 K	5.29
338.15 K	5.54
348.15 K	5.71
358.15 K	5.95
368.15 K	6.11

CCCO [propan-1-ol] + C[N+]1(CCCO)CCOCC1.N#C[N-]C#N
[2]
Settings	activity coefficient
318.15 K	2.63
328.15 K	2.58
338.15 K	2.55
348.15 K	2.52
358.15 K	2.49
368.15 K	2.46

CCCO [propan-1-ol] + C[n+]1ccn(CCCO)c1.N#CN=C=[N-]
[2]
Settings	activity coefficient
318.15 K	1.77
328.15 K	1.76
338.15 K	1.76
348.15 K	1.76
358.15 K	1.77
368.15 K	1.78

CC(C)O [propan-2-ol] + C[N+]1(CCCO)CCOCC1.N#C[N-]C#N
[2]
Settings	activity coefficient
318.15 K	2.85
328.15 K	2.78
338.15 K	2.72
348.15 K	2.67
358.15 K	2.64
368.15 K	2.6

CC(C)O [propan-2-ol] + C[n+]1ccn(CCCO)c1.N#CN=C=[N-]
[2]
Settings	activity coefficient
318.15 K	1.92
328.15 K	1.92
338.15 K	1.92
348.15 K	1.91
358.15 K	1.91
368.15 K	1.92

CCCc1ccccc1 [propylbenzene] + C[N+]1(CCCO)CCOCC1.N#C[N-]C#N
[2]
Settings	activity coefficient
318.15 K	54.1
328.15 K	53.2
338.15 K	52.4
348.15 K	51.5
358.15 K	51
368.15 K	50.2

CCCc1ccccc1 [propylbenzene] + C[n+]1ccn(CCCO)c1.N#CN=C=[N-]
[2]
Settings	activity coefficient
318.15 K	26.8
328.15 K	27.3
338.15 K	27.6
348.15 K	27.9
358.15 K	28.2
368.15 K	28.4

c1ccncc1 [pyridine] + C[N+]1(CCCO)CCOCC1.N#C[N-]C#N
[2]
Settings	activity coefficient
318.15 K	1.71
328.15 K	1.8
338.15 K	1.89
348.15 K	1.97
358.15 K	2.06
368.15 K	2.15

c1ccncc1 [pyridine] + C[n+]1ccn(CCCO)c1.N#CN=C=[N-]
[2]
Settings	activity coefficient
318.15 K	1.33
328.15 K	1.41
338.15 K	1.5
348.15 K	1.58
358.15 K	1.67
368.15 K	1.75

C=Cc1ccccc1 [styrene] + C[N+]1(CCCO)CCOCC1.N#C[N-]C#N
[2]
Settings	activity coefficient
318.15 K	9.96
328.15 K	10.3
338.15 K	10.5
348.15 K	10.8
358.15 K	11
368.15 K	11.3

C=Cc1ccccc1 [styrene] + C[n+]1ccn(CCCO)c1.N#CN=C=[N-]
[2]
Settings	activity coefficient
318.15 K	5.97
328.15 K	6.25
338.15 K	6.57
348.15 K	6.82
358.15 K	7.14
368.15 K	7.39

C1CCOC1 [tetrahydrofuran] + C[N+]1(CCCO)CCOCC1.N#C[N-]C#N
[2]
Settings	activity coefficient
318.15 K	4.57
328.15 K	4.61
338.15 K	4.67
348.15 K	4.72
358.15 K	4.78
368.15 K	4.83

C1CCOC1 [tetrahydrofuran] + C[n+]1ccn(CCCO)c1.N#CN=C=[N-]
[2]
Settings	activity coefficient
318.15 K	3.07
328.15 K	3.19
338.15 K	3.33
348.15 K	3.44
358.15 K	3.57
368.15 K	3.67

c1ccsc1 [thiophene] + C[N+]1(CCCO)CCOCC1.N#C[N-]C#N
[2]
Settings	activity coefficient
318.15 K	3.23
328.15 K	3.37
338.15 K	3.51
348.15 K	3.64
358.15 K	3.77
368.15 K	3.9

c1ccsc1 [thiophene] + C[n+]1ccn(CCCO)c1.N#CN=C=[N-]
[2]
Settings	activity coefficient
318.15 K	2.44
328.15 K	2.57
338.15 K	2.69
348.15 K	2.82
358.15 K	2.95
368.15 K	3.07

Cc1ccccc1 [toluene] + C[N+]1(CCCO)CCOCC1.N#C[N-]C#N
[2]
Settings	activity coefficient
318.15 K	13
328.15 K	13.1
338.15 K	13.3
348.15 K	13.4
358.15 K	13.6
368.15 K	13.7

Cc1ccccc1 [toluene] + C[n+]1ccn(CCCO)c1.N#CN=C=[N-]
[2]
Settings	activity coefficient
318.15 K	7.75
328.15 K	8
338.15 K	8.27
348.15 K	8.51
358.15 K	8.84
368.15 K	9.09

C=COC(C)=O [vinyl acetate] + C[N+]1(CCCO)CCOCC1.N#C[N-]C#N
[2]
Settings	activity coefficient
318.15 K	6.62
328.15 K	6.72
338.15 K	6.81
348.15 K	6.89
358.15 K	6.99
368.15 K	7.08

C=COC(C)=O [vinyl acetate] + C[n+]1ccn(CCCO)c1.N#CN=C=[N-]
[2]
Settings	activity coefficient
318.15 K	4.73
328.15 K	4.92
338.15 K	5.12
348.15 K	5.3
358.15 K	5.49
368.15 K	5.68

O [water] + C[N+]1(CCCO)CCOCC1.N#C[N-]C#N
[2]
Settings	activity coefficient
318.15 K	0.364
328.15 K	0.373
338.15 K	0.384
348.15 K	0.395
358.15 K	0.404
368.15 K	0.414

O [water] + C[n+]1ccn(CCCO)c1.N#CN=C=[N-]
[2]
Settings	activity coefficient
318.15 K	0.35
328.15 K	0.36
338.15 K	0.37
348.15 K	0.38
358.15 K	0.4
368.15 K	0.41
